Series [1] concerns RAW264.7. Nature of the series: Antiinflammatory activity in mouse RAW264.7 cells assessed as inhibition of LPS-induced nitric oxide production at 50 uM preincubated for 1 hr followed by LPS stimulation for 24 hrs by Griess method. The class given is functional. (In general: Griess reagent forms a coloured azo dye with nitrite.)
The subject of series [2] is RAW264.7. Briefly: Antiinflammatory activity in mouse RAW264.7 cells assessed as inhibition of LPS-induced nitric oxide production preincubated for 1 hr followed by LPS stimulation for 24 hrs by Griess method. The series is classed as functional, cell-based.
The test system of series [3] is RAW264.7. Briefly: Cytotoxicity against mouse RAW264.7 cells assessed as reduction in cell viability at 100 uM after 72 hrs by MTT assay. The series is classed as cell-based. Conditions: raw264.7, 72 h. A general note: Tetrazolium dyes change colour on reduction, which living cells bring about.
The subject of series [4] is RAW264.7. Briefly: Inhibition iNOS protein expression levels in LPS-induced mouse RAW264.7 cells at 1 to 4 uM by Western blot analysis. The series is classed as functional, cell-based.
In series [5] the test system is RAW264.7. Briefly: Inhibition COX2 protein expression levels in LPS-induced mouse RAW264.7 cells at 1 to 4 uM by Western blot analysis. The class given is functional, cell-based. (In general: In western blotting, separated proteins are transferred to a membrane and probed.)
Series [6] relates to RAW264.7. Briefly: Inhibition iNOS mRNA expression levels in LPS-induced mouse RAW264.7 cells at 1 to 4 uM by RT-PCR analysis. The class given is functional, cell-based.
For series [7], the system named is RAW264.7. Briefly: Inhibition COX2 mRNA expression levels in LPS-induced mouse RAW264.7 cells at 1 to 4 uM by RT-PCR analysis. The class given is functional, cell-based.
In series [8] the test system is RAW264.7. Briefly: Inhibition iNOS protein expression levels in LPS-induced mouse RAW264.7 cells at 4 uM by Western blot analysis. The class given is functional, cell-based.
Series [9] relates to RAW264.7. Nature of the series: Inhibition iNOS mRNA expression levels in LPS-induced mouse RAW264.7 cells at 4 uM by RT-PCR analysis. The series is classed as functional, cell-based.

Active and inactive are the calls of the source. The calls are words filed in the database; no cut-off is given here.

Regarding `COc1cc(OC)c2c(=O)c(-c3cc(OC)c(OCC=C(C)C)cc3OC)coc2c1`, the inhibition at 50 µM in series [1] was above 50%. In addition, the IC50 in series [2] amounted to 35.7 µM. Moreover, the Activity entry in series [3] was “Non-Toxic”.
As to `COC1=CC(=O)C(CC=C(C)C)(CC=C(C)C)C(=O)/C1=C(N)\C=C\c1ccccc1`, the inhibition entry in series [4] and in series [6] was “Active” each time. In addition, the inhibition result in [5] and in series [7] was “inactive” in each case. In addition, the inhibition at 50 µM in series [1] is above 50%. Besides, in series [2], the IC50 came out at 2.1 µM. Also, in series [3], the Activity entry is given as “Non-Toxic”.
Take `COC1=CC(=O)C(CC=C(C)C)(CC=C(C)C)C2=C1C(=O)C[C@@H](c1ccccc1)O2`: the inhibition at 50 µM in series [1] was above 50%. Further, the IC50 in [2] was 20.4 µM. Besides, the Activity result in series [3] was “Non-Toxic”.
With `CC(=N)NCc1cccc(CN)c1`, the inhibition result in [8] and in series [9] was “Active” throughout.

Usually inhibition stands for the percentage by which the read-out fell short of the control. As usually defined, the IC50 is the concentration that gives 50% inhibition.

Values taken from ChEMBL document CHEMBL4431358, “Flavonoids and biphenylneolignans with anti-inflammatory activity from the stems of Millettia griffithii” (Bioorg Med Chem Lett, 2016).
